Measured values as given in Sander's compilation of Henry's law constants.

Assays:
[1] = Henry solubility constant Hcp at 296 K (mol/(m3 Pa))
[2] = Henry solubility constant Hcp at 298.15 K (mol/(m3 Pa))
[3] = Henry solubility constant Hcp at 303 K (mol/(m3 Pa))
[4] = Henry solubility constant Hcp at 293 K (mol/(m3 Pa))
[5] = Henry solubility constant Hcp at 310 K (mol/(m3 Pa))
[6] = reference: Chiang et al. (1998)
[7] = reference: Pearson and McConnell (1975)
[8] = reference: Yurteri et al. (1987)
[9] = reference: Gossett et al. (1985)
[10] = reference: Lincoff and Gossett (1984)
[11] = reference: Nielsen et al. (1994)
[12] = reference: Warner et al. (1980)
[13] = reference: Hartkopf and Karger (1973)

For CCCCOCC [1-ethoxy-butane], the “Henry solubility constant Hcp at 296 K” value ([1]; reference: Miller and Stuart (2000)) was 0.0064.
With CC[N+](=O)[O-] [nitroethane] the “Henry solubility constant Hcp” value ([2]; reference: Beneš and Dohnal (1999)) was 0.22 and the “Henry solubility constant Hcp at 303 K” value ([3]; reference: Friant and Suffet (1979)) was 0.14.
For ClC=C(Cl)Cl [trichloroethene], the “Henry solubility constant Hcp at 293 K” value [4, 6] was 0.0011, the “Henry solubility constant Hcp at 293 K” value [4, 7] was 0.0011 and the “Henry solubility constant Hcp at 293 K” value [4, 8] was 0.00094. The “Henry solubility constant Hcp at 296 K” value ([1]; reference: David et al. (2000)) was 0.001, the “Henry solubility constant Hcp” value ([2]; reference: Bierwagen and Keller (2001)) was 0.0012 and the “Henry solubility constant Hcp” value ([2]; reference: Bissonette et al. (1990)) was 0.001. The “Henry solubility constant Hcp” value ([2]; reference: Chen et al. (2012)) was 0.001, the “Henry solubility constant Hcp” value ([2]; reference: Cooling et al. (1992)) was 0.00097 and the “Henry solubility constant Hcp” value ([2]; reference: Ervin et al. (1980)) was 0.00074. The “Henry solubility constant Hcp” value ([2]; reference: Garbarini and Lion (1985)) was 0.001, the “Henry solubility constant Hcp” value ([2]; reference: Gossett (1987)) was 0.001 and the “Henry solubility constant Hcp” value [2, 9] was 0.0011. For the same compound, the “Henry solubility constant Hcp” value ([2]; reference: Görgényi et al. (2002)) was 0.00095, the “Henry solubility constant Hcp” value ([2]; reference: Heron et al. (1998)) was 0.00093 and the “Henry solubility constant Hcp” value ([2]; reference: Khalfaoui and Newsham (1994b)) was 0.00095. The “Henry solubility constant Hcp” value ([2]; reference: Knauss et al. (2000)) was 0.0011, the “Henry solubility constant Hcp” value [2, 10] was 0.00097 and the “Henry solubility constant Hcp” value ([2]; reference: Munz and Roberts (1987)) was 0.00096. The “Henry solubility constant Hcp” value [2, 11] was 0.0013, the “Henry solubility constant Hcp” value ([2]; reference: Park et al. (1997)) was 0.00088 and the “Henry solubility constant Hcp” value ([2]; reference: Peng and Wan (1997)) was 0.0011. The “Henry solubility constant Hcp” value ([2]; reference: Peng and Wan (1998)) was 0.0014, the “Henry solubility constant Hcp” value ([2]; reference: Ramachandran et al. (1996)) was 0.00083 and the “Henry solubility constant Hcp” value ([2]; reference: Robbins et al. (1993)) was 0.00094. The “Henry solubility constant Hcp” value ([2]; reference: Schoene and Steinhanses (1985)) was 0.0009, the “Henry solubility constant Hcp” value ([2]; reference: Shimotori and Arnold (2003)) was 0.001 and the “Henry solubility constant Hcp” value ([2]; reference: Tancrède and Yanagisawa (1990)) was 0.0013. For the same compound, the “Henry solubility constant Hcp” value ([2]; reference: Turner et al. (1996)) was 0.00085, the “Henry solubility constant Hcp” value ([2]; reference: Vane and Giroux (2000)) was 0.0011 and the “Henry solubility constant Hcp” value [2, 12] was 0.00084.
For ClC1C(Cl)C(Cl)C(Cl)C(Cl)C1Cl (stereo not given) [γ-1,2,3,4,5,6-hexachlorocyclohexane], the “Henry solubility constant Hcp at 296 K” value ([1]; reference: Fendinger and Glotfelty (1988)) was 5, the “Henry solubility constant Hcp at 296 K” value ([1]; reference: Fendinger et al. (1989)) was 4.9 and the “Henry solubility constant Hcp” value ([2]; reference: Kucklick et al. (1991)) was 2.8. The “Henry solubility constant Hcp” value ([2]; reference: Sahsuvar et al. (2003)) was 4.3 and the “Henry solubility constant Hcp” value ([2]; reference: Xie et al. (2004)) was 6.
For CCOC=O [ethyl methanoate], the “Henry solubility constant Hcp” value [2, 13] was 0.0019, the “Henry solubility constant Hcp” value ([2]; reference: Kutsuna et al. (2005)) was 0.034 and the “Henry solubility constant Hcp” value ([2]; reference: Wittig et al. (2001)) was 0.04. For the same compound, the “Henry solubility constant Hcp at 303 K” value ([3]; reference: Richon et al. (1985)) was 0.023.
For CC(=O)OCCC(C)C [3-methylbutyl ethanoate], the “Henry solubility constant Hcp” value ([2]; reference: Ammari and Schroen (2019)) was 0.022 and the “Henry solubility constant Hcp at 303 K” value ([3]; reference: Meynier et al. (2003)) was 0.088.
In the case of CCCCOC(=O)c1ccccc1C(=O)OCCCC [dibutyl phthalate], the “Henry solubility constant Hcp at 296 K” value ([1]; reference: Atlas et al. (1983)) is reported as 5.5.
For CCOCC [diethyl ether], the “Henry solubility constant Hcp at 293 K” value ([4]; reference: Yu (1992)) was 0.0033, the “Henry solubility constant Hcp” value ([2]; reference: Bachofen and Farhi (1971)) was 0.013 and the “Henry solubility constant Hcp” value [2, 11] was 0.011. The “Henry solubility constant Hcp” value ([2]; reference: Ondo and Dohnal (2007)) was 0.01, the “Henry solubility constant Hcp” value ([2]; reference: Signer et al. (1969)) was 0.0078 and the “Henry solubility constant Hcp at 310 K” value ([5]; reference: Brody et al. (1971)) was 0.0063. The “Henry solubility constant Hcp at 310 K” value ([5]; reference: Eger et al. (1963)) was 0.0051.
With ClCCl [dichloromethane] the “Henry solubility constant Hcp at 293 K” value [4, 6] was 0.0034, the “Henry solubility constant Hcp at 293 K” value [4, 7] was 0.0033 and the “Henry solubility constant Hcp at 293 K” value ([4]; reference: Yu (1992)) was 0.0044. The “Henry solubility constant Hcp at 293 K” value [4, 8] was 0.0052, the “Henry solubility constant Hcp at 296 K” value ([1]; reference: David et al. (2000)) was 0.0039 and the “Henry solubility constant Hcp” value ([2]; reference: Chen et al. (2012)) was 0.0035. The “Henry solubility constant Hcp” value ([2]; reference: Gossett (1987)) was 0.0046, the “Henry solubility constant Hcp” value [2, 9] was 0.0038 and the “Henry solubility constant Hcp” value [2, 13] was 0.0042. For the same compound, the “Henry solubility constant Hcp” value [2, 10] was 0.0034, the “Henry solubility constant Hcp” value ([2]; reference: Lutsyk et al. (2005)) was 0.0043 and the “Henry solubility constant Hcp” value ([2]; reference: Park et al. (1997)) was 0.0043. For the same compound, the “Henry solubility constant Hcp” value [2, 12] was 0.0031 and the “Henry solubility constant Hcp at 310 K” value ([5]; reference: McIntosh and Heffron (2000)) was 0.0034.
In the case of FC(F)(F)C(Cl)Br (stereo not given) [1-bromo-1-chloro-2,2,2-trifluoroethane], the “Henry solubility constant Hcp” value ([2]; reference: Smith et al. (1981b)) is reported as 0.00053, the “Henry solubility constant Hcp at 310 K” value ([5]; reference: Lerman et al. (1983)) is reported as 0.00033 and the “Henry solubility constant Hcp at 310 K” value ([5]; reference: Saidman et al. (1966)) is reported as 0.00034. For the same compound, the “Henry solubility constant Hcp at 310 K” value ([5]; reference: Stoelting and Longshore (1972)) was 0.00032.
